Measurements from publication PMC11375437, “Selective labelling of GBA2 in cells with fluorescent β-D-arabinofuranosyl cyclitol aziridines” (Chemical Science, 2024).

Molecular target: T1, GBA1 (Homo sapiens, UniProt P04062)
T1 construct: endogenous in cells; host or cells: wild-type HEK293T
T1 sequence (P04062 40-536): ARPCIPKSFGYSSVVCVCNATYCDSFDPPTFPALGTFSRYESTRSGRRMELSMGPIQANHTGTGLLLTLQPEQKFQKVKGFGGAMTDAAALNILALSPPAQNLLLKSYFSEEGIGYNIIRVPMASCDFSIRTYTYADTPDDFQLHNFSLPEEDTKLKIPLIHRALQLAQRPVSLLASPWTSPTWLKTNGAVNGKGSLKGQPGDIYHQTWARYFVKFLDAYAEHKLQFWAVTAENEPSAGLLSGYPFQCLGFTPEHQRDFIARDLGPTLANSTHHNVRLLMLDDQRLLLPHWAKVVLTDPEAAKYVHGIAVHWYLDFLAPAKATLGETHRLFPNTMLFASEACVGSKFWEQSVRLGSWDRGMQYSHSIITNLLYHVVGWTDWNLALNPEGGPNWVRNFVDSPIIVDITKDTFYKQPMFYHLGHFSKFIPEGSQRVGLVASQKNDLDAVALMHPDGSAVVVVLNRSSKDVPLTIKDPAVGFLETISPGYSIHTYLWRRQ
Test: In situ labelling of wild-type HEK293T cells, GBA1
Format: cell-based
Details: wild-type HEK293T intact cells; for GBA1 labelling in situ: 500 nM, 2.5 h
Procedure: Importantly, the GBA2 selectivity of β-D-Araf ABPs 3–5 was maintained during in situ labelling of wild-type HEK293T cells (ESI Fig. S9 ^†). […] Even after 24 h incubation, similar results were obtained: ABP 4 selectively labelled GBA2 at 10 nM, with only slight concomitant GBA1 labelling at concentrations higher than 100 nM (ESI Fig. S10 ^†). Selective GBA2 labelling by ABP 3 and 4 finally was also observed in human retinal pigment epithelial-1 cells (Fig. 5C).
Figure S9. Fluorescent gel images of in situ labelling of wild-type HEK293T cells by β-D-Araf aziridine ABPs 3-5.
β-D-Araf ABPs were firstly incubated with intact wild-type HEK293T cells for 1 or 2.5 h (1st incubation) and then cells were harvested. Lysis buffers containing different competitors (1 µM ABP or cyclophellitol inhibitor (CP, 1 µM for 150 nM set, 2 µM for 500 nM set)) was added to the harvested cells, cells were lysed, and lysate was incubated on ice for 30 min and additional 30 min at 37 °C (2nd incubation). Labelling of residual β-glucosidases was performed using ABPs 7 (for 3), 8 (for 4), or 9 (for 5) at 500 nM.
Figure S10. Fluorescent gel images of A) intact HEK293T wild-type cells labeled by β-D-Araf aziridine ABPs 3-5. […]
2.13 In situ intact cells labelling and inhibition assays
Confluent HEK293T cells expressing human endogenous GBA1 and GBA2/GBA3 OE, wild-type HEK293T cells or wild-type human retinal pigment epithelial-1 (RPE-1) cells were cultured in 12-well plates for duplicates or triplicates with (or without) compounds (3-5) for the described incubation times using the conditions as described for the cell culture. The cells were harvested as described in the cell lysis method. After determination of the protein concentration by BCA assay, the lysates were adjusted to 10 μL by addition of potassium phosphate buffer in order to normalize the amount of protein loaded (to 10-25 μg total protein per measurement), and subjected to the ABPP as […]
2.14 In situ visualization of GBA2 for confocal microscopy
HEK293T WT, GBA2 overexpression (GBA1 endogenous and GBA2 OE) and GBA1/GBA2 knockout (KO) GBA2 overexpression (GBA1/2 KO GBA2 OE) cells were cultured in DMEM High Glucose (Capricon Scientific) supplemented with 10% fetal calf serum, 1% (v/v) GlutaMax and 0.1% (w/v) penicillin/streptomycin.2,6 Cells were grown to approximately 75% confluence on Ø15 mm glass coverslips coated with 0.1 mg/ml poly-L-Lysine.
Samples were pretreated for 16 h with 100 nM of a GBA1 inhibitor (218, 0.5% DMSO), 500 nM of a GBA1 and GBA2 inhibitor (229, 0.5% DMSO) or with 0.5% DMSO alone. GBA2 was subsequently incubated by the addition of 50 nM ABP 4 (BODIPY-Red) to cells for 2 h at 37 °C with 5% CO2.
Unbound probe was washed away with PBS and cells were fixed with 4% paraformaldehyde (Alfa Aesar)/PBS for 15 min at RT. […]

| Compound | GBA1 labelling in situ | Concentrations giving slight concomitant GBA1 labelling in situ (24 h incubation) |
| --- | --- | --- |
| CC1=CC(C)=[N+]2C1=C(CCCCc1cn(CCCCCCCCN3[C@@H]4[C@H](CO)[C@@H](O)[C@H](O)[C@@H]43)nn1)c1c(C)cc(C)n1[B-]2(F)F (stereo partly shown) [ABP 3] | did not visibly label GBA1 |  |
| COc1ccc(C2=[N+]3C(=C(CCCCc4cn(CCCCCCCCN5[C@@H]6[C@H](CO)[C@@H](O)[C@H](O)[C@@H]65)nn4)c4ccc(-c5ccc(OC)cc5)n4[B-]3(F)F)C=C2)cc1 (stereo partly shown) [ABP 4] | did not visibly label GBA1 | higher than 100 nM |
| CN1/C(=C/C=C/C=C/C2=[N+](CCCCCC(=O)NCc3cn(CCCCCCCCN4[C@@H]5[C@H](CO)[C@@H](O)[C@H](O)[C@@H]54)nn3)c3ccccc3C2(C)C)C(C)(C)c2ccccc21 (stereo partly shown) [ABP 5] | GBA1 labelling only occurred when using a high concentration (500 nM) and longer incubation time (2.5 h) |  |
